Laboratory results: patent publication US9403823B2, “Protein kinase inhibitors” (ORIBASE PHARMA, priority 2012, dated 2016)
Read-outs that look alike come from different tables or passages of the source. Marks after values point to notes of the source that are not given here. Values belong to the molecule of their own block, whether it stands above or below them.

Legend:
[1] = biological target: T1, BRAF (Homo sapiens, UniProt P15056); assay: In vitro kinase assay (Z'-LYTE), BRAF; assay type: biochemical; details: read-out: % of inhibition of the kinase compared to the control
T1 construct: purchased Invitrogen
T1 sequence (P15056 whole entry): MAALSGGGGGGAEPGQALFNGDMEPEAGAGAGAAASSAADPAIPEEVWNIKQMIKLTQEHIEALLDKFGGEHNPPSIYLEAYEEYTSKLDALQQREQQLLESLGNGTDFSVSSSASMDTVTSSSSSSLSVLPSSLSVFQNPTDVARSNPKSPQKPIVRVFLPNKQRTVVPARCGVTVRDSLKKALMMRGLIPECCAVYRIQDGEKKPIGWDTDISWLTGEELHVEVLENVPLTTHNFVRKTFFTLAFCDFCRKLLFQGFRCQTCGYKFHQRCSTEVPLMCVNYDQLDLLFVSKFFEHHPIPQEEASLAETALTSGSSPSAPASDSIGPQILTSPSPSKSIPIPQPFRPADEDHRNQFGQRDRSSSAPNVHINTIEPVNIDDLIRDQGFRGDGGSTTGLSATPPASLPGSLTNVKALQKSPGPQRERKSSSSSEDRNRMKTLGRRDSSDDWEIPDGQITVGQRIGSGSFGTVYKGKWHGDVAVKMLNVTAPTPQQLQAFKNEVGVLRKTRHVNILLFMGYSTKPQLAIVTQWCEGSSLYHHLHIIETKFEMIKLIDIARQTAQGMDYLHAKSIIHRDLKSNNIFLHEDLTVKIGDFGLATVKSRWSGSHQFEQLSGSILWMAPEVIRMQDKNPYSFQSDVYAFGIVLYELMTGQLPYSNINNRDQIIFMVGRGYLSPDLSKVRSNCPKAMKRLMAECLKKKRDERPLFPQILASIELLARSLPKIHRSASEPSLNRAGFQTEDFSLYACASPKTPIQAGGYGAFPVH
Outline: (§1)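 FRET-based Z'-LYTE coupled-enzyme assay: kinase phosphorylates a dual-fluorophore peptide, unphosphorylated peptide is protease-cleaved, and donor/acceptor emission ratio after 400 nm excitation quantifies progress. Buffer 50 mM HEPES pH 7.5, 10 mM MgCl2, 1 mM EGTA, 0.01% BRIJ-35; 1% DMSO final. Single compound concentration: 100 nM, or 10 μM for ABL and ABL T315I.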

[2] = biological target: T2, EGFR (ErbB1) (Homo sapiens, UniProt P00533); assay: In vitro kinase assay (Z'-LYTE), EGFR (ErbB1); assay type: biochemical; details: read-out: % of inhibition of the kinase compared to the control
T2 construct: purchased Invitrogen
T2 sequence (P00533 25-1210): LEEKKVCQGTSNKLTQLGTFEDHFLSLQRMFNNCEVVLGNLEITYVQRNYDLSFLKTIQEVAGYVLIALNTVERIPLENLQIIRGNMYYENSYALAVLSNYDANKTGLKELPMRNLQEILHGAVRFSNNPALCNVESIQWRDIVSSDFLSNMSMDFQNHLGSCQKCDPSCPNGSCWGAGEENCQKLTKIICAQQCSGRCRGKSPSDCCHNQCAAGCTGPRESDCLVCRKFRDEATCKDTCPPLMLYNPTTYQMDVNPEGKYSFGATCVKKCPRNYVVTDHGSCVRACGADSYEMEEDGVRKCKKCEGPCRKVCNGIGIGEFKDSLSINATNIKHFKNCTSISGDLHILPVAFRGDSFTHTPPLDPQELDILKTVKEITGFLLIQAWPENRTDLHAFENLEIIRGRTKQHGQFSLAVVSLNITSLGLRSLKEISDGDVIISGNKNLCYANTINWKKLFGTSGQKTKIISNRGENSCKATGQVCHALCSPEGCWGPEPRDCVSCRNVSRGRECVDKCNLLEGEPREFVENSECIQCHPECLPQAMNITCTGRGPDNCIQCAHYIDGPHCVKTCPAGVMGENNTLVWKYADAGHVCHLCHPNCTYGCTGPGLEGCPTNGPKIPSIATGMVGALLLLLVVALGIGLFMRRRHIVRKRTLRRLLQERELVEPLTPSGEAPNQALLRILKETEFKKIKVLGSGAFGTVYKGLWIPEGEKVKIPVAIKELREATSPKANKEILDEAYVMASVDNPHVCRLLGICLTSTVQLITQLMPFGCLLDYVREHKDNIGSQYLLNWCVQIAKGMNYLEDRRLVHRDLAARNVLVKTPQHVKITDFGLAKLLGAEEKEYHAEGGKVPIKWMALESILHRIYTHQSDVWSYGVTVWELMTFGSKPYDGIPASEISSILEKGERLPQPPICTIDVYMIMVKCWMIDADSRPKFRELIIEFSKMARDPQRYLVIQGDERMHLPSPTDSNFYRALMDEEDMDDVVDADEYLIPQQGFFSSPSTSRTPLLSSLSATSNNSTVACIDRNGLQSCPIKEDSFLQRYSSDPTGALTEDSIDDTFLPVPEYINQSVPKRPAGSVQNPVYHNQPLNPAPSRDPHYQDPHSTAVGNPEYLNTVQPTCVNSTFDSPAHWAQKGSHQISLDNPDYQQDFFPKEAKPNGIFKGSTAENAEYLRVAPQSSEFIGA
Outline: as §1

[3] = biological target: T3, EGFR (ErbB1) T790M L858R (Homo sapiens, UniProt P00533, L858R/T790M); assay: In vitro kinase assay (Z'-LYTE), EGFR (ErbB1) T790M L858R; assay type: biochemical; details: read-out: % of inhibition of the kinase compared to the control
T3 construct: purchased Invitrogen
Outline: as §1

[4] = biological target: T4, FGFR2 (Homo sapiens, UniProt P21802); assay: In vitro kinase assay (Z'-LYTE), FGFR2; assay type: biochemical; details: read-out: % of inhibition of the kinase compared to the control
T4 construct: purchased Invitrogen
Outline: as §1

[5] = biological target: T5, KDR (VEGFR2) (Homo sapiens, UniProt P35968); assay: In vitro kinase assay (Z'-LYTE), KDR (VEGFR2); assay type: biochemical; details: read-out: % of inhibition of the kinase compared to the control
T5 construct: purchased Invitrogen
T5 sequence (P35968 20-1356): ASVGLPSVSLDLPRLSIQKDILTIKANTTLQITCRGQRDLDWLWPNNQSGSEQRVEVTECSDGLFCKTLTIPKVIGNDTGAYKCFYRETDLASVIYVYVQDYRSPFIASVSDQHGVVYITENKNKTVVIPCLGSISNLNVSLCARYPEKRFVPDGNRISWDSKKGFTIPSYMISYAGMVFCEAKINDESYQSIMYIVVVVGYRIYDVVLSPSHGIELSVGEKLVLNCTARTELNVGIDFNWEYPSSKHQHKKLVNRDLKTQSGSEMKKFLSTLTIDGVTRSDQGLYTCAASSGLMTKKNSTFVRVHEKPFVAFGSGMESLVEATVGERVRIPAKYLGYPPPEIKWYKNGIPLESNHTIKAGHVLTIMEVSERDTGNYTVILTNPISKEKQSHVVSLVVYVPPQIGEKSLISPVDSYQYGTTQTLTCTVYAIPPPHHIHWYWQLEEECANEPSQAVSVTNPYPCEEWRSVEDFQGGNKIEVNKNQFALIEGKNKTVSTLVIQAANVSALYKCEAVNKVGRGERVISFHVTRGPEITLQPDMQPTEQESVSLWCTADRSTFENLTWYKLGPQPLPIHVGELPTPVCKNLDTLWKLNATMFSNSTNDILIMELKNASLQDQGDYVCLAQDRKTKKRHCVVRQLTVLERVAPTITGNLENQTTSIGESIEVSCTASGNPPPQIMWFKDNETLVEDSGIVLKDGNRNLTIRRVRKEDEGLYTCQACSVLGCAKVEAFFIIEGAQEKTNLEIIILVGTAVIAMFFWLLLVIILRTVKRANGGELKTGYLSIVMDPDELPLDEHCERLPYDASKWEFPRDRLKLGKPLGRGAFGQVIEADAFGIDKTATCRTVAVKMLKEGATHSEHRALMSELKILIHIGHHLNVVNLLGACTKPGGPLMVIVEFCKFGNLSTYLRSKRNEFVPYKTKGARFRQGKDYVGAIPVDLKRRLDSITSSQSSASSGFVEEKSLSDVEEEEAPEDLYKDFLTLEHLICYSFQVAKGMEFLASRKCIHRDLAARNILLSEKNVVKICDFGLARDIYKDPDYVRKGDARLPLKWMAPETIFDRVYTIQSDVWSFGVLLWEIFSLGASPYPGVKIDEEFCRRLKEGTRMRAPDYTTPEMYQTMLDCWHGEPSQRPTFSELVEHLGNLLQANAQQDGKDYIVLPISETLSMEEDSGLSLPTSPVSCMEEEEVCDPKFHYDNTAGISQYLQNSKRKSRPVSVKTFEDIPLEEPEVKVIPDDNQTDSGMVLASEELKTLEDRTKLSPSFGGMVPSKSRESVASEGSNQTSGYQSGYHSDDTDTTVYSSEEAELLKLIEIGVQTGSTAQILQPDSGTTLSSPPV
Outline: as §1

[6] = biological target: T6, PDGFRA (PDGFR alpha) (Homo sapiens, UniProt P16234); assay: In vitro kinase assay (Z'-LYTE), PDGFRA; assay type: biochemical; details: read-out: % of inhibition of the kinase compared to the control
T6 construct: purchased Invitrogen
T6 sequence (P16234 24-1089): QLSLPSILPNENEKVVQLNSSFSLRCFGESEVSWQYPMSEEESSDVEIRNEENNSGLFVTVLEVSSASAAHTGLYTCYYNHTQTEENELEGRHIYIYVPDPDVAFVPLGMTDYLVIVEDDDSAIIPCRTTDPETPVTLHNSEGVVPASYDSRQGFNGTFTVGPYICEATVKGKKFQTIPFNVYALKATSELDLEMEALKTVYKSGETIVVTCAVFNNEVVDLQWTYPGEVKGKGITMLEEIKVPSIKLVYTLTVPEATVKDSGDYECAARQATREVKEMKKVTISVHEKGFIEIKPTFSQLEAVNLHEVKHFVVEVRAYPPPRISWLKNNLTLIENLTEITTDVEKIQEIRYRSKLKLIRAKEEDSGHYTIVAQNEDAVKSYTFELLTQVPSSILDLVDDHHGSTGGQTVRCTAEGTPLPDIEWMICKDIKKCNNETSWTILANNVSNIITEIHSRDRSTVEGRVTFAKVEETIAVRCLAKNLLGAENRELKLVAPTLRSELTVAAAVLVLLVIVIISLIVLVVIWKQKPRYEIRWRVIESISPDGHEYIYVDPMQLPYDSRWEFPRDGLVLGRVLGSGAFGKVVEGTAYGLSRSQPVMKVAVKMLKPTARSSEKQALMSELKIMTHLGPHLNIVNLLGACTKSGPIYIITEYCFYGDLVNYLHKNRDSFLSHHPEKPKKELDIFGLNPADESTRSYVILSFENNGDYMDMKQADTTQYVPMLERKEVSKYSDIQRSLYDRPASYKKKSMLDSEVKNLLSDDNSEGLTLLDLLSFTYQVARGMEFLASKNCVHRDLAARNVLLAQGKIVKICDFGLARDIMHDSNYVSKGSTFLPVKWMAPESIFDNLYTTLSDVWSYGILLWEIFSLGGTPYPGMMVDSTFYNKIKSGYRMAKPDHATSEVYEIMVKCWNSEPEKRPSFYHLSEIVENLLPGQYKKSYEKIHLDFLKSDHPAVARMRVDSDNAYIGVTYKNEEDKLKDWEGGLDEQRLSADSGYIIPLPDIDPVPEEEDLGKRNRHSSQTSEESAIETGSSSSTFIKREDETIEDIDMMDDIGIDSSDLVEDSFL
Outline: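 Inhibition read as emission ratio (donor/acceptor, 400 nm excitation) of a FRET-labelled peptide, phosphorylation protecting it from proteolytic cleavage. Compounds tested once at 100 nM for VEGFR1 and PDGFRA, at 10 μM for ABL and ABL T315I, 1% DMSO final. ATP at previously determined apparent Km.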

[7] = biological target: T7, SRC (Homo sapiens, UniProt P12931); assay: In vitro kinase assay (Z'-LYTE), SRC; assay type: biochemical; details: read-out: % of inhibition of the kinase compared to the control
T7 construct: purchased Invitrogen
T7 sequence (P12931 whole entry): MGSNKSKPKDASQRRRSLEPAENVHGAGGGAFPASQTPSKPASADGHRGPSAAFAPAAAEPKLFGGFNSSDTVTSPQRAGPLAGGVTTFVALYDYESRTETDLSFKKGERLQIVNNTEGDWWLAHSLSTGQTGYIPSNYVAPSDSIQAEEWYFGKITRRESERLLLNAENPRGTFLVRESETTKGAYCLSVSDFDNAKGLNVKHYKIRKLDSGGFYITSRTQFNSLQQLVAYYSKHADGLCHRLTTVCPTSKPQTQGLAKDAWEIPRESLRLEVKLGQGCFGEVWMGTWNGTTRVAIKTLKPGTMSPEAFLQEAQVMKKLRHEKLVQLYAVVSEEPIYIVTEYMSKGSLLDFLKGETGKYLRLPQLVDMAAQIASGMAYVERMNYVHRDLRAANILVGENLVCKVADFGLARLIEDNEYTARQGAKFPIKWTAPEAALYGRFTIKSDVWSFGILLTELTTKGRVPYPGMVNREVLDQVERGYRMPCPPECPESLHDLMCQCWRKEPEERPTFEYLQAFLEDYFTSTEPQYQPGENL
Outline: as §1

[8] = biological target: T8, ABL (Homo sapiens, UniProt P00519); assay: In vitro kinase assay (Z'-LYTE), ABL; assay type: biochemical; details: read-out: % of inhibition of the kinase compared to the control
T8 construct: purchased Invitrogen
Procedure: (§2) 1) In Vitro Kinase Assays (Table 10 to Table 21)
(§3) The inhibitory activity of the compounds on several kinases including BRAF, EGFR (ErbB1), EGFR (ErbB1) T790M L858R, FGFR2, KDR (VEGFR2), PDGFRA (PDGFR alpha), SRC and other was evaluated by Invitrogen using the Z′-LYTE® technology. Briefly, the Z′-LYTE® biochemical assay employs a fluorescence-based, coupled-enzyme format and is based on the differential sensitivity of phosphorylated and non-phosphorylated peptides to proteolytic cleavage. The peptide substrate is labeled with two fluorophores—one at each end—that make up a FRET pair. A ratiometric method, which calculates the ratio (the Emission Ratio) of donor emission to acceptor emission after excitation of the donor fluorophore at 400 nm, is used to quantitate reaction progress.
(§4) The compounds are screened in 1% DMSO (final) in the well. For 10 point titrations, 3-fold serial dilutions are conducted from the starting concentration. All Peptide/Kinase Mixtures are diluted to a 2× working concentration in the appropriate Kinase Buffer. All ATP Solutions are diluted to a 4× working concentration in Kinase Buffer (50 mM HEPES pH 7.5, 0.01% BRIJ-35, 10 mM MgCl2, 1 mM EGTA). ATP Km apparent is previously determined using a Z′-LYTE® assay.
(§5) Each compound was incubated at a concentration of 100 nM (excepted to test the activity against ABL and ABL T315I for which the compounds were incubated at a concentration of 10 μM) and the tables 10 to 21 summarize the results obtained showing the inhibitory power of a compound.

[9] = biological target: T9, ABL T315I (Homo sapiens, UniProt P00519, T315I); assay: In vitro kinase assay (Z'-LYTE), ABL T315I; assay type: biochemical; details: read-out: % of inhibition of the kinase compared to the control
T9 construct: purchased Invitrogen
Procedure: as §2, §3, §4, §5

[10] = biological target: T10, FGFR1 (Homo sapiens, UniProt P11362); assay: In vitro kinase assay (Z'-LYTE), FGFR1; assay type: biochemical; details: read-out: % of inhibition of the kinase compared to the control
T10 construct: purchased Invitrogen
Procedure: as §2, §3
as §4, with “assay. […]” for “assay.”

[11] = biological target: T11, VEGFR1 (Homo sapiens, UniProt P17948); assay: In vitro kinase assay (Z'-LYTE), VEGFR1; assay type: biochemical; details: read-out: % of inhibition of the kinase compared to the control
T11 construct: purchased Invitrogen
Procedure: as §2, §3
as §4, with “assay. […]” for “assay.”

[12] = biological target: T12, PDGFRB (Homo sapiens, UniProt P09619); assay: In vitro kinase assay (Z'-LYTE), PDGFRB; assay type: biochemical; details: read-out: % of inhibition of the kinase compared to the control
T12 construct: purchased Invitrogen
Procedure: as §2, §3
as §4, with “assay. […]” for “assay.”

[13] = system: A549 cell line; assay: In vitro cell proliferation assay (MTT), A549; assay type: cell-based; details: Homo sapiens, read-out: EC50, anti-proliferative activity
Outline: (§6)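 Cancer cell lines were seeded at 5×10^3 cells per well and HRMEC at 1×10^4 cells per well, then incubated in duplicate with escalating compound concentrations (10 nM to 3 μM) for 72 hr. Proliferation was read by MTT.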

[14] = system: HepG2 cell line; assay: In vitro cell proliferation assay (MTT), HepG2; assay type: cell-based; details: Homo sapiens, read-out: EC50, anti-proliferative activity
Outline: as §6

[15] = system: HT29 cell line; assay: In vitro cell proliferation assay (MTT), HT29; assay type: cell-based; details: Homo sapiens, read-out: EC50, anti-proliferative activity
Procedure: (§7) 2) In Vitro Cell Proliferation Assays (Table 22 to Table 35)
(§8) Cancer cell lines (5×10^3 cells per well) or HUVEC (1×10^4 cells per well) or HRMEC (1×10^4 cells per well) were distributed in 96-well plates and incubating in duplicate with escalating concentrations (10 nM to 3 μM) of compounds for 72 hr. Cell proliferation was measured using MTT (3[4,5-dimethylthiazol-2-yl]-2,5-diphenyltetrazolium bromide).

[16] = system: BxPC-3 cell line; assay: In vitro cell proliferation assay (MTT), BxPC-3; assay type: cell-based; details: Homo sapiens, read-out: EC50, anti-proliferative activity
Procedure: as §7, §8

[17] = system: H1975 cell line; assay: In vitro cell proliferation assay (MTT), H1975; assay type: cell-based; details: Homo sapiens, read-out: EC50, anti-proliferative activity
Procedure: as §7, §8

[18] = system: HUVEC; assay: In vitro cell proliferation assay (MTT), HUVEC; assay type: cell-based; details: Homo sapiens, read-out: EC50, anti-proliferative activity
Outline: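 HUVEC cells were plated at 1×10^4 cells per well in 96-well plates and exposed in duplicate to increasing compound concentrations from 10 nM to 3 μM for 72 hr. Proliferation was then quantified with MTT (3[4,5-dimethylthiazol-2-yl]-2,5-diphenyltetrazolium bromide) to determine anti-proliferative activity.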

[19] = system: HuCCT1 cell line; assay: In vitro cell proliferation assay (MTT), HuCCT1; assay type: cell-based; details: Homo sapiens, HuCCT-1, 72 h; read-out: EC50, anti-proliferative activity
Procedure: as §7, §8

[20] = system: HuH6 Clone 5 cell line; assay: In vitro cell proliferation assay (MTT), HuH6 Clone 5; assay type: cell-based; details: HUH-6-clone5, 72 h; read-out: EC50, anti-proliferative activity
Procedure: as §7, §8

[21] = system: HuH7 cell line; assay: In vitro cell proliferation assay (MTT), HuH7; assay type: cell-based; details: Homo sapiens, Huh-7, 72 h; read-out: EC50, anti-proliferative activity
Procedure: as §7, §8

[22] = system: PC3 cell line; assay: In vitro cell proliferation assay (MTT), PC3; assay type: cell-based; details: Homo sapiens, PC-3, 72 h; read-out: EC50, anti-proliferative activity
Procedure: as §7, §8

[23] = system: Caki-2; assay: In vitro cell proliferation assay (MTT), Caki-2; assay type: cell-based; details: Homo sapiens, CAKI-2, 72 h; read-out: EC50, anti-proliferative activity
Procedure: as §7, §8

[24] = system: MDA-MB-231 cell line; assay: In vitro cell proliferation assay (MTT), MDA-MB-231; assay type: cell-based; details: Homo sapiens, MDA-MB-231, 72 h; read-out: EC50, anti-proliferative activity
Outline: as §6

[25] = system: HeLa cell line; assay: In vitro cell proliferation assay (MTT), HeLa; assay type: cell-based; details: Homo sapiens, 72 h, read-out: EC50, anti-proliferative activity
Outline: as §6

[26] = system: HRMEC cells; assay: In vitro cell proliferation assay (MTT), HRMEC; assay type: cell-based; details: 72 h, read-out: EC50, anti-proliferative activity
Procedure: as §7, §8

[27] = system: HepG2 cells; assay: Human hepatocellular carcinoma mouse model (HepG2 xenograft); assay type: in vivo, athymic nude male mice; details: 20 mg/kg q.d. per os for 15 consecutive days
Procedure: 3) In Vivo Studies (Table 36)
Human hepatocellular carcinoma mouse model was prepared by subcutaneously implanting HepG2 cells (1×10^7 cell/mL in sterile PBS), into the right flank of athymic nude male mice (HSD, 6-7 weeks old). When the tumor volume reached approximately 200 mm^3, mice were assigned randomly to either vehicle alone or ORB compounds treatment groups (six mice per group). Mice were treated with either vehicle (PEG400) or OR0720, OR0721, OR0811 (20 mg/kg q.d.; per os for 15 consecutive days).
Tumor volumes in mm^3 were determined three times a week with a digital caliper and calculated using the following formula: Tumor Volume (mm)=length (mm)×width (mm)×width (mm)×½. Body weight was measured three times a week, and mice were observed daily for monitoring signs of stress to detect possible toxicities. One-way ANOVA was used for statistical comparisons. Data were analyzed with Prism 5.0 b (GraphPad Software) by one-way ANOVA with Bonferroni post hoc. Tumor Growth Inhibition (TGI) is calculated as the percent decrease of tumor growth at the end of the study in the ORB compounds treatment groups in comparison to the vehicle alone treatment group.

- inhibition at 0.1 µM [1]: < 50%
- inhibition at 0.1 µM [2]: ≥ 50%
- inhibition at 0.1 µM [3]: ≥ 50%
- inhibition at 0.1 µM [4]: ≥ 50%
- inhibition at 0.1 µM [5]: ≥ 50%
- inhibition at 0.1 µM [6]: ≥ 50%
- inhibition at 0.1 µM [7]: ≥ 50%
- inhibition at 10 µM [8]: ≥ 50%
- inhibition at 10 µM [9]: ≥ 50%
- inhibition at 0.1 µM [10]: ≥ 50%
- inhibition at 0.1 µM [11]: ≥ 50%
- inhibition at 0.1 µM [12]: ≥ 50%
- EC50 ([13]; A549, 72 hr, MTT): ≥ 1000 nM
- EC50 ([14]; HepG2, 72 hr, MTT): ≥ 1000 nM
- EC50 ([15]; HT-29, HT29, 72 hr, MTT): ≥ 1000 nM
- EC50 ([16]; BxPC-3, 72 hr, MTT): ≥ 1000 nM
- EC50 ([17]; NCI-H1975, H1975, 72 hr, MTT): ≥ 1000 nM
Structure (SMILES): Cc1ccc(NC(=O)c2ccc(CN3CCN(C)CC3)c(C(F)(F)F)c2)cc1CNc1cnc2[nH]c(C(=O)O)cc2c1 [OR0623, 5-{2-Methyl-5-[4-(4-methyl-piperazin-1-ylmethyl)-3-trifluoromethyl-benzoylamino]-benzylamino}-1H-pyrrolo[2,3-b]pyridine-2-carboxylic acid]
- EC50 ([18]; 72 hr, MTT): ≥ 1000 nM

- inhibition at 0.1 µM [1]: ≥ 50%
- inhibition at 0.1 µM [2]: ≥ 50%
- inhibition at 0.1 µM [3]: ≥ 50%
- inhibition at 0.1 µM [4]: ≥ 50%
- inhibition at 0.1 µM [5]: ≥ 50%
- inhibition at 0.1 µM [6]: ≥ 50%
- inhibition at 0.1 µM [7]: ≥ 50%
- EC50 ([13]; A549, 72 h): ≤ 100 nM
- EC50 ([14]; HepG2, 72 h): ≤ 100 nM
- EC50 [20]: 100 to 1000 nM
- EC50 [21]: 100 to 1000 nM
- EC50 ([15]; HT-29, 72 h): ≤ 100 nM
- EC50 ([16]; BXPC-3, 72 h): ≤ 100 nM
- EC50 ([17]; NCI-H1975, 72 h): 100 to 1000 nM
- EC50 [22]: ≤ 100 nM
- EC50 [24]: ≤ 100 nM
- EC50 [25]: 100 to 1000 nM
Structure (SMILES): CC(=O)c1cc2cc(NCc3cc(NC(=O)c4ccc(CN5CCN(C)CC5)c(C(F)(F)F)c4)ccc3C)cnc2[nH]1 [OR0720, N-{3-[(2-Acetyl-1H-pyrrolo[2,3-b]pyridin-5-ylamino)-methyl]-4-methyl-phenyl}-4-(4-methyl-piperazin-1-ylmethyl)-3-trifluoromethyl-benzamide]
- EC50 [19]: 100 to 1000 nM
- EC50 ([18]; 72 h): ≤ 100 nM
- EC50 [23]: 100 to 1000 nM
- EC50 [26]: ≤ 100 nM
- tumor growth in xenografted mice bearing human hepatocellular carcinoma tumors [27]: significantly induced a decrease of tumor growth
- Anti-tumor activity (Tumor Growth Inhibition—TGI) ([27]; mice, HepG2 xenograft, end of study vs vehicle): 66%*
